In patent publication US6655081B1, “Mushrooms” (DSM N.V., priority 1999, dated 2003):

What was measured:
Agaricus bisporus = format: in vivo; settings: after 3 flushes
Protocol: This example describes the effect of natamycin on the yield of mushrooms. Tubs having an area of 0.26 m^2 were filled with commercially prepared pasteurized mushroom substrate inoculated with spawn (seed) of the commercial button mushroom Agaricus bisporus. Following colonization by the mushroom fungus, the substrate was covered by a layer of peat moss, mixed with limestone (the casing layer) and further incubated under well known standard conditions until mycelial strands were visible on the surface. Fruiting bodies were initiated by manipulating the external environment using methods well known in the industry. 9 tubs were treated five days prior to the first flush by applying an aqueous solution containing 10 ppm of natamycin, as a control 9 tubs were treated the same way however without natamycin. The aqueous solution was applied at a rate of 1.84 liter per square meter and the mushroom beds were allowed to continue growing.

Verticillium fungicola = test: Mould growth on Potato Dextrose Agar plates containing natamycin; format: cell-based; settings: 5 days at 25° C.
Protocol: (§1) Each of these organisms were field isolates.
(§2) Potato Dextrose Agar plates containing 0, 10 and 20 ppm of natamycin and mould suspensions were prepared using well known methods.
(§3) The freshly prepared suspensions were dilluted to final concentrations of 10^4 Colony Forming Units/ml.
(§4) 10 μl of each mould suspensions was inoculated in a spot on the agar plates (in duplo). The plates were incubated for 5 days at 25° C.
(§5) After 5 days of incubation on the control plates containing no natamycin, clear colonies were formed.

Mycogone pernicosa = test: as above; format: cell-based; settings: 5 days at 25° C.
Protocol: as §1, §2, §3, §4, §5

Dactylium dendroides = test: as above; format: cell-based; settings: 5 days at 25° C.
Protocol: as §1, §2, §3, §4, §5

Trichoderma harzianum = test: as above; format: cell-based; settings: 5 days at 25° C.
Protocol: as §1, §2, §3, §4, §5

most fungi = settings: cited from earlier work
[1] = tested on: mycelium of most mushroom species, e.g. A. bisporus; settings: cited from earlier work

## C[C@@H]1C/C=C/C=C/C=C/C=C/[C@H](O[C@@H]2O[C@H](C)[C@@H](O)[C@H](N)[C@@H]2O)C[C@@H]2O[C@](O)(C[C@@H](O)C[C@H]3O[C@@H]3/C=C/C(=O)O1)C[C@H](O)[C@H]2C(=O)O [natamycin]
Agaricus bisporus; 10 ppm natamycin aqueous solution, 1.84 liter per square meter, five days prior to first flush, 9 tubs
  average yield: 3.94 pounds per square feet
Agaricus bisporus; 10 ppm natamycin
  yield compared to the untreated control: statistically significant yield increase
Verticillium fungicola; 10 ppm natamycin
  growth on agar plate: only some slight growth
Verticillium fungicola; 20 ppm natamycin
  growth on agar plate: no growth
Mycogone pernicosa; 10 ppm natamycin
  growth on agar plate: no growth
Mycogone pernicosa; 20 ppm natamycin
  growth on agar plate: no growth
Dactylium dendroides; 10 ppm natamycin
  growth on agar plate: no growth
Dactylium dendroides; 20 ppm natamycin
  growth on agar plate: no growth
Trichoderma harzianum; 10 ppm natamycin
  growth on agar plate: no growth
Trichoderma harzianum; 20 ppm natamycin
  growth on agar plate: no growth
Most fungi
  MIC (Minimal Inhibitory Concentration): less than 20 ppm
[1]
  inhibition of mushroom mycelium: inhibited
